One molecule from patent US7189751B2, “Oxa(thia)zolidine compounds, process for preparation thereof and anti-inflammatory agents” (Nippon Soda Co., Ltd., priority 2001, dated 2007) can be followed below.

The test system of data set [1] is Mouse Delayed Contact Dermatitis Induced by Picryl Chloride. In words: Mouse delayed contact dermatitis induced by picryl chloride. Format: in vivo. On the procedure: Pharmacological Test Example 3 Mouse Delayed Contact Dermatitis Induced by Picryl Chloride
This pharmacological test was carried out referring to the method of Asherson, G. L. & Ptak, W. (Immunology, 15: 405–416 (1968).) and the method of Jun Hiroi (Folia Pharmacology of Japan, 86: 233–239 (1985).). More specifically, hairs on the abdomen of an ICR-strain male mouse were removed using an electric clipper and an electric shaver. Then, 0.1 mL of 7% ether solution of picryl chloride (Tokyo Kasei Kogyo Co., Ltd., C 0307) was applied onto the abdomen for sensitization. On the sixth day after the sensitization, 20 μL/ear of 1% olive oil solution of picryl chloride was topically applied to the anterior and posterior surfaces of both ears of the mouse to induce contact dermatitis (first induction). Before and 24 hours after the induction, the thicknesses of the particular parts on the both ears were measured three times, respectively, using a digimatic micrometer (Mitsutoyo Co., Ltd.) to work out the average values. Ear edema of the both ears was respectively determined by subtracting the average thickness of the each ear before the induction from that on 24 hours after the induction, so that a grouping was carried out to separate the appropriate individuals. On the fourth day after the first induction, the hairs on the abdomen were removed again, and 0.1 mL of 7% ethanol solution of picryl chloride was applied thereto for additional sensitization. The contact dermatitis for evaluating activity was induced by re-applying 20 μL/ear of 1% olive oil solution of picryl chloride to the anterior and posterior surfaces of both ears (second induction) on the seventh day after the additional sensitization (on the […] after the first sensitization). The activity of each compound of the present invention was evaluated as the inhibition on the contact dermatitis as compared with that of the vehicle applied control. That is, the thicknesses of the particular portions of the both ears were measured respectively three times with a digimatic micrometer to work out the mean values before, 24 hours and 48 hours after the second induction. Ear swelling was determined by subtracting the ear thickness before the second induction from that on 24 hours and 48 hours after the second induction, respectively. Topical application activity was evaluated by applying 25 μL of the acetone solution of the compound of the present invention similarly to the anterior and posterior surfaces of the right ear one hour before and 16 hours after the second induction. As the positive control, 0.02 mg/20 μL of acetone solution of Dexamethasone (hereinafter referred to as DEX, Wako Pure Chemical Industries Ltd., 047-18863) was applied similarly as for the compound of the present invention. With respect to the inhibitory activity in topical application tests, the topical activity was determined by the inhibition of the applied right ear edema, and the translocation and distribution property was determined by the activity onto the swelling of non-treated left ear. Oral administration activity was evaluated by administrating 0.5% methyl cellulose suspension of the compound of the present invention forcibly and perorally to the mouse an hour before and 16 hours after the second induction. As the positive control, 20 mg/kg of Prednisolone (Sigma Chemical Co., P 6004) suspension was administrated similarly as for the compounds of the present invention. […] As the examples, the body weight changes in the mice for 48 hours after the second induction when they were administrated with the compounds shown in Table 5 are shown in Table 6.

Data set [2] relates to acetic acid induced writhes. The experiment in a line: Acetic acid writhing. Format: in vivo, mouse. On the procedure:
Pharmacological Test Example 4: Acetic Acid Wirthing
This test was carried out referring to the method of Inoue, K., Motonaga, A. & Nishimura, T (Arzneimittel Forshung/Drug Research, 41 (1): 235–239 (1991)). More specifically, 7.5 mL/kg of 0.9% acetic acid solution was injected intraperitoneally into an ICR-strain male mouse (5 to 7 weeks old), and the induced writhes (characteristic behaviors of convulsive contracting the abdomen, twisting the body and/or extending the legs) were observed. Number of writhes of each mouse was measured during 10 to 20 min. period after acetic acid administration. […] The analgesic activity of the compounds according to the present invention was evaluated on the basis of the degree of inhibiting the number writhes by the administration of the compounds. As the positive control, indomethacin or aspirin was administrated. The analgesic activity of the compounds according to the present invention measured in this test were exemplified in Table 7.
On the technique in general: An intraperitoneal irritant provokes the stretching counted in writhing tests.

Data set [3] relates to Mouse Ear Edema Induced by TPA. The experiment in a line: Mouse ear edema induced by TPA. Format: in vivo. The note with it: topical, 0.3 mg/20 μL/ear × 2; ICR male mouse; 6 hours after TPA. On the procedure: Pharmacological Test Example 2: Mouse Ear Edema Induced by TPA
This test was carried out referring to the method of Carlson, R. P. et al. (Agents and Actions, 17(2): 197–204 (1985).) and the method of Chang, J. (European Journal of Pharmacology, 142: 197–205 (1987).). More specifically, 5 μg/20 μL of TPA (Sigma Chemical Co.), dissolved with ethanol, was topically applied to the anterior and posterior surfaces of the right ear of an ICR-strain male mouse (6–7 weeks old). 6 hours later, the thickness of each ear at the particular part was respectively measured three times using a digimatic micrometer to calculate the mean value. Ear edema was determined by subtracting the mean thickness of the left ear as without treatment from that of the right ear as TPA-applied. Topical application activity was evaluated by applying an acetone solution of the compound of the present invention or 0.1% Tween 80/acetone solution thereof similarly to the anterior and posterior surfaces of the right ear 30 min. before and 15 min. after the TPA-application. […] Oral administration activity was evaluated by administrating 0.2% Tween 80 suspension of the compound of the present invention forcibly and perorally to the mouse an hour prior to the TPA-application. As the positive control, 100 mg/kg of Hydrocortisone (Sigma Chemical Co., H 4001) suspension was applied to the mouse similarly as for the compound of the present invention.

Structures are written as SMILES.

Turning to `CCOC(=O)C(=C1N[C@@H](C)[C@H](c2ccc(Cl)cc2)S1)[N+](=O)[O-]` (relative stereo) [Compound 2-29, Trans-5-(4-chlorophenyl)-4-methyl-2-(1-ethoxycarbonyl-1-nitromethylene)-thiazolidine], the “Change in body weight 48 hours after induction (Mean ± S.E.)” value in data set [1] (1.5 mg/ear × 2, vehicle control −0.45 ± 0.20) is -0.06 ± 0.15 g. Moreover, the “Change in body weight 48 hours after induction (Mean ± S.E.) (%)” value in data set [1] (1.5 mg/ear × 2, vehicle control −1.29 ± 0.59) is reported as −0.20 ± 0.48%. In addition, in data set [1] (topical 1.5 mg/25 μL/ear × 2, vehicle control 0.299 ± 0.006), the “Ear swelling after 24 hours, Right (Applied) (Mean ± S.E., mm)” value is reported as 0.261 ± 0.012 mm. The “Ear swelling after 24 hours, Left (Not applied) (Mean ± S.E., mm)” value in data set [1] (topical 1.5 mg/25 μL/ear × 2 on right ear, vehicle control 0.284 ± 0.008) is given as 0.243 ± 0.020 mm. In addition, the “Number of writhes (Mean ± S.E.)” value in data set [2] (i.p. 1 mg/kg, 30 min before, vehicle i.p. 25.2 ± 2.2) was 5.5 ± 1.9; in data set [2] (p.o. 10 mg/kg, 120 min before, vehicle p.o. 23.5 ± 3.1) it was 1.5 ± 0.7. In addition, the “Ear Edema Inhibition (%)” value in data set [3] is listed as 78.6%.
